Experimental data: patent publication US20260070917A1, “CYCLIN DEPENDENT KINASE DEGRADERS AND METHODS OF USE THEREOF” (Differentiated Therapeutics Inc, priority 2023, published 2026)

Tests used:
Assay type in all cases: cell-based
CDK2 = biological target: T1, CDK2 (Homo sapiens, UniProt P24941); test: HiBit Assay Protocol for CDK2 (HIBIT protein quantification, degradation); conditions: HEK293-CDK2-Hibit cells, compound treatment for 6 hours; for DC50: ABS DC50
T1 construct: host or cells: HEK293-CDK2-Hibit
Procedure, shortened: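 HEK293 cells expressing HiBiT-tagged CDK2 were seeded overnight, then treated 6 h with a 3-fold, 10-point compound dilution series. CDK2 levels were read as luminescence after lytic HiBiT/LgBiT detection, normalised to DMSO-only and medium-only controls, and DC50 derived by curve fitting.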

CCNE1 = biological target: T2, CCNE1 (Homo sapiens, UniProt P24864); test: HiBit Assay Protocol for CCNE1 (HIBIT protein quantification, degradation); conditions: HEK293-CCNE1-Hibit cells, compound treatment for 6 hours
T2 construct: host or cells: HEK293-CCNE1-Hibit
Procedure, shortened: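 HEK293 cells expressing HiBiT-tagged CCNE1 were seeded overnight, then treated 6 h with a 3-fold, 10-point compound dilution series. HiBiT levels were read by lytic LgBiT luminescence and normalised to DMSO-only (high) and medium-only (low) controls. DC50 was derived by curve fitting.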

CDK9 = biological target: T3, CDK9 (Homo sapiens, UniProt P50750); test: HiBit Assay Protocol for CDK9 (HIBIT protein quantification, degradation); conditions: HEK293-CDK9-Hibit cells, compound treatment for 6 hours; for Dmax: 6 h, read-out: CDK9 HIBIT Protein Quantification Maximum; for DC50: ABS DC50
T3 construct: host or cells: HEK293-CDK9-Hibit
Method: HiBit Assay Protocol for CDK9
• 1. The culture medium for HEK293-CDK9-Hibit cell was prepared using DMEM with 10% FBS. • 2. Cells were cultivated in T-75 flasks in a cell culture incubator set at 37° C., 5% CO2, 95% relative humidity. Cells were allowed to reach 80-90% confluence before detaching and splitting. • 3. Cultivated cells were rinsed in T-75 flasks with 5 mL PBS. Aspirated off. Added 1.5 mL trypsin, and incubated the cells at 37° C. for approximately 5 minutes or until the cells detached and floated. • 4. Trypsin was inactivated by adding excess serum containing medium. • 5. Cells were harvested from flask into cell culture medium and then the cell number was counted. HEK293-CDK9-Hibit cells were seeded into 384-well plate (cell density: 1.6×10^5 cells/well/50 uL medium) in DMEM medium according to the plate map below and were incubated overnight at 37° C. and 5% CO2. • Note: Cell Cultured Medium: 90% DMEM+10% FBS+1% Penicillin-Streptomycin Liquid
• 1. Test compounds were dissolved at 3 mM DMSO stock solution. Transferred 45 uL of stock solution to a 384 pp-plate. Perform 3-fold, 10-point dilution via transferring 15 uL compound into 30 uL DMSO by using TECAN liquid handler. • 2. The plates were spinned at room temperature at 1,000 RPM for 1 minute. • 3. Transferred 50 nL of diluted compound from compound source plate into the cell plate by Echo. • 4. After compound treatment for 6 hours, removed the plate from incubators and equilibrated at room temperature for 15 minutes. Prepared the HiBit reagent consists of the following ratios: 10 mL of Nano-Glo®-HiBiT Lytic Buffer, 200 uL of Nano-Glo®-HiBiT Lytic Substrate and 100 uL of LgBiT Protein, mixed thoroughly. Added 20 uL of HiBit reagent into each well and spinned the plates at room temperature at 1,000 RPM for 1 minute to be detected. Plates were then shaken at 600 RPM at room temperature for 20 minutes, and read by EnVision. • 5. The inhibition activity was calculated following the formula below:
[formula] • Note: Where HC was obtained from cells treated with 0.1% DMSO only; LC was obtained from culture medium only. • 6. The ABS DC50 was calculated by fitting the Curve using Xlfit (v5.3.1.3), equation 201: […]

T3 sequence (P50750 whole entry): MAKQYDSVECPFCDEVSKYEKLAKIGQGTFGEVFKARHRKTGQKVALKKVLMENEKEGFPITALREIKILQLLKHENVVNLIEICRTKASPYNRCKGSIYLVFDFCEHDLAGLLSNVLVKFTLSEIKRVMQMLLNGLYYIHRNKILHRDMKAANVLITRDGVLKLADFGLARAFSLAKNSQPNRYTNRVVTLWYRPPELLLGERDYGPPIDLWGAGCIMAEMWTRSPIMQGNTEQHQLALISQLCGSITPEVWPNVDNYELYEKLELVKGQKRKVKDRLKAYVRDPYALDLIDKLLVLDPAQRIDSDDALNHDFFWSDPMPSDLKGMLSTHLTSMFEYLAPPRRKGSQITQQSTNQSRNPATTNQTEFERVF
T2 sequence (P24864 whole entry): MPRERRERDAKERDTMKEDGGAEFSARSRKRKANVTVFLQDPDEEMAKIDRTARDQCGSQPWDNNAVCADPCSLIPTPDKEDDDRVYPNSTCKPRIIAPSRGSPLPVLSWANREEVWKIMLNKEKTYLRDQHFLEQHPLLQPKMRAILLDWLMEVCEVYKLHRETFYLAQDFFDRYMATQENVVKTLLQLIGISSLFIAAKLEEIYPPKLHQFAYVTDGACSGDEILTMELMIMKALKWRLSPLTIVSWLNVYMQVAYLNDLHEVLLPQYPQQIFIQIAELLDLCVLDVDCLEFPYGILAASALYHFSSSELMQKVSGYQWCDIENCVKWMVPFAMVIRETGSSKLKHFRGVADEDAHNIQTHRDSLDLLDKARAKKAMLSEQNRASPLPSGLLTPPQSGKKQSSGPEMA

Row | CDK2 HIBIT Protein Quantification Maximum (CDK2) [%] | CCNE1 HIBIT Protein Quantification Maximum (CCNE1) [%] | Dmax (CDK9) [%] | DC50 (CDK2) [nM] | DC50 (CDK9) [nM] | Compound
1 | 42 | 9 | 4 | – | – | CC1CCCC1N1C(=O)C2(CC2)c2cnc(NC3CCN(S(=O)(=O)N4CCCN(C(=O)CCCc5cccc6c5n(C)c(=O)n6C5CCC(=O)NC5=O)CC4)CC3)nc21 (centres unmarked) [Compound 33]
2 | 72 | 44 | 61 | 6 | 13.6 | CC1CCCC1N1C(=O)C2(CC2)c2cnc(NC3CCN(S(=O)(=O)N4CC(N(C)C(=O)CCCCCc5cccc6c5n(C)c(=O)n6C5CCC(=O)NC5=O)C4)CC3)nc21 (centres unmarked) [Compound 34]
3 | 34 | 21 | 17 | – | – | CC1CCCC1N1C(=O)C2(CC2)c2cnc(NC3CCN(S(=O)(=O)N4CCCC45CCN(C(=O)CCCCCc4cccc6c4n(C)c(=O)n6C4CCC(=O)NC4=O)C5)CC3)nc21 (centres unmarked) [Compound 35]
4 | 40 | 30 | 0 | – | – | CC1CCCC1N1C(=O)C2(CC2)c2cnc(NC3CCN(S(=O)(=O)N4CC5(CCCCN5C(=O)CCCCCc5cccc6c5n(C)c(=O)n6C5CCC(=O)NC5=O)C4)CC3)nc21 (centres unmarked) [Compound 37]
5 | 71 | 46 | 57 | 4 | 23 | CC1CCCC1N1C(=O)C2(CC2)c2cnc(NC3CCN(S(=O)(=O)N4CCN(C(=O)CCCCCc5cccc6c5n(C)c(=O)n6C5CCC(=O)NC5=O)CC4)CC3)nc21 (centres unmarked) [Compound 38]
6 | 54 | 9 | 6 | 7 | – | CC1CCCC1N1C(=O)C2(CC2)c2cnc(NC3CCN(S(=O)(=O)N4CC5(CCCN(C(=O)CCCCCc6cccc7c6n(C)c(=O)n7C6CCC(=O)NC6=O)C5)C4)CC3)nc21 (centres unmarked) [Compound 39]
7 | 69 | 29 | 44 | 5 | – | CC1CCCC1N1C(=O)C2(CC2)c2cnc(NC3CCN(S(=O)(=O)N4CC5(CCN(C(=O)CCCCCc6cccc7c6n(C)c(=O)n7C6CCC(=O)NC6=O)CC5)C4)CC3)nc21 (centres unmarked) [Compound 40]
8 | 70 | 23 | 17 | 7 | – | CC1CCCC1N1C(=O)C2(CC2)c2cnc(NC3CCN(S(=O)(=O)N4CCC5(CCN(C(=O)CCCCCc6cccc7c6n(C)c(=O)n7C6CCC(=O)NC6=O)C5)C4)CC3)nc21 (centres unmarked) [Compound 42]
9 | 60 | 62 | 32 | 16 | – | CC1CCCC1N1C(=O)C2(CC2)c2cnc(NC3CCN(S(=O)(=O)N4CCCN(C(=O)CCCCCc5cccc6c5n(C)c(=O)n6C5CCC(=O)NC5=O)CC4)CC3)nc21 (centres unmarked) [Compound 43]
10 | 39 | 44 | 5 | – | – | CC1CCCC1N1C(=O)C2(CC2)c2cnc(NC3CCN(S(=O)(=O)C4CCCN(C(=O)CCCCCc5cccc6c5n(C)c(=O)n6C5CCC(=O)NC5=O)C4)CC3)nc21 (centres unmarked) [Compound 44]
11 | 74 | 35 | 44 | 5 | – | CC1CCCC1N1C(=O)C2(CC2)c2cnc(NC3CCN(S(=O)(=O)N4CCN(C(=O)CCCCCCCc5cccc6c5n(C)c(=O)n6C5CCC(=O)NC5=O)CC4)CC3)nc21 (centres unmarked) [Compound 46]
12 | 44 | 18 | 10 | – | – | CC1CCCC1N1C(=O)C2(CC2)c2cnc(NC3CCN(S(=O)(=O)N4CCC5(CCN(C(=O)CCCCCCCc6cccc7c6n(C)c(=O)n7C6CCC(=O)NC6=O)C5)C4)CC3)nc21 (centres unmarked) [Compound 47]
13 | 35 | 42 | 15 | – | – | CC1CCCC1N1C(=O)C2(CC2)c2cnc(NC3CCN(S(=O)(=O)C4CCCN(C(=O)CCCCCCCc5cccc6c5n(C)c(=O)n6C5CCC(=O)NC5=O)C4)CC3)nc21 (centres unmarked) [Compound 48]
14 | 62 | 8 | 66 | 34 | 6.53 | CC1CCCC1N1C(=O)C2(CC2)c2cnc(NC3CCN(S(=O)(=O)N4CC(N(C)C(=O)CCCCCCCCCc5cccc6c5n(C)c(=O)n6C5CCC(=O)NC5=O)C4)CC3)nc21 (centres unmarked) [Compound 49]
15 | 37 | 16 | 17 | – | – | CC1CCCC1N1C(=O)C2(CC2)c2cnc(NC3CCN(S(=O)(=O)N4CC5(CCCN(C(=O)CCCCCCCCCc6cccc7c6n(C)c(=O)n7C6CCC(=O)NC6=O)C5)C4)CC3)nc21 (centres unmarked) [Compound 50]
16 | 56 | 40 | 41 | 53 | – | CC1CCCC1N1C(=O)C2(CC2)c2cnc(NC3CCN(S(=O)(=O)N4CC5(CCN(C(=O)CCCCCCCCCc6cccc7c6n(C)c(=O)n7C6CCC(=O)NC6=O)CC5)C4)CC3)nc21 (centres unmarked) [Compound 51]
17 | 56 | 19 | 29 | 2 | – | CC1CCCC1N1C(=O)C2(CC2)c2cnc(NC3CCN(S(=O)(=O)N4CCC5(CCN(C(=O)CCCCCCCCCc6cccc7c6n(C)c(=O)n7C6CCC(=O)NC6=O)C5)C4)CC3)nc21 (centres unmarked) [Compound 52]
18 | 62 | 46 | 36 | 10 | – | CC1CCCC1N1C(=O)C2(CC2)c2cnc(NC3CCN(S(=O)(=O)C4CCN(C(=O)CCCCCCCCCc5cccc6c5n(C)c(=O)n6C5CCC(=O)NC5=O)C4)CC3)nc21 (centres unmarked) [Compound 53]
19 | 25 | 13 | 8 | – | – | CC1CCCC1N1C(=O)C2(CC2)c2cnc(NC3CCN(S(=O)(=O)N4CC5CN(C(=O)CCc6ccc7c(c6)n(C)c(=O)n7C6CCC(=O)NC6=O)CC5C4)CC3)nc21 (centres unmarked) [Compound 55]
20 | 41 | 19 | 15 | – | – | CC1CCCC1N1C(=O)C2(CC2)c2cnc(NC3CCN(S(=O)(=O)N4CCC5(CCCN5C(=O)CCc5ccc6c(c5)n(C)c(=O)n6C5CCC(=O)NC5=O)C4)CC3)nc21 (centres unmarked) [Compound 56]
21 | 53 | 22 | 15 | – | – | CC1CCCC1N1C(=O)C2(CC2)c2cnc(NC3CCN(S(=O)(=O)N4CC5(CCCN(C(=O)CCc6ccc7c(c6)n(C)c(=O)n7C6CCC(=O)NC6=O)C5)C4)CC3)nc21 (centres unmarked) [Compound 57]
22 | 12 | 10 | 9 | – | – | CC1CCCC1N1C(=O)C2(CC2)c2cnc(NC3CCN(S(=O)(=O)N4CC5(CN(C(=O)CCc6ccc7c(c6)n(C)c(=O)n7C6CCC(=O)NC6=O)C5)C4)CC3)nc21 (centres unmarked) [Compound 58]
23 | 46 | 24 | 17 | – | – | CC1CCCC1N1C(=O)C2(CC2)c2cnc(NC3CCN(S(=O)(=O)N4CC5(CCN(C(=O)CCc6ccc7c(c6)n(C)c(=O)n7C6CCC(=O)NC6=O)CC5)C4)CC3)nc21 (centres unmarked) [Compound 59]
24 | 18 | 17 | 28 | – | – | CC1CCCC1N1C(=O)C2(CC2)c2cnc(NC3CCN(S(=O)(=O)N4CCC5(CCN(C(=O)CCc6ccc7c(c6)n(C)c(=O)n7C6CCC(=O)NC6=O)C5)C4)CC3)nc21 (centres unmarked) [Compound 60]
